Measurements published in patent publication US20220072008A1 (CEDARS-SINAI MEDICAL CENTER, priority 2020, published 2022).
Values joined by “and” are separate entries in the source; they are usually repeats but may differ in a detail not shown here. Equal values may be shown once.

Columns and labels:
[1] = Randomized controlled pilot trial: serious adverse events and safety; assay type: in vivo, human
Experimental: Death, serious adverse events (SAE's), and grade 3 and 4 adverse events (AEs) are will be assessed and reported throughout the study.
Study patients were assessed daily for 15 days or until discharge, whichever came first. Discharged patients participated in phone or video study visits on days 7 and 15. Clinical assessment performed daily during hospitalization included evaluation of clinical status with daily vital signs, oxygen supplementation type and amount, need for mechanical ventilation, adverse events, and concomitant medications. WBCs, hemoglobin, platelets, electrolytes, BUN, creatinine, liver transaminases, and inflammatory markers, if obtained as part of SOC, were monitored on days 1 through 5, 7, and 15 while patients were hospitalized. […] Self-reported race and ethnicity, obtained from medical records, were collected as demographic information to assess possible differences in disease severity or treatment response. Serious adverse events and grade 3 and 4 adverse events as described in the Division of AIDS Table for Grading the Severity of Adult and Pediatric Adverse Events were recorded.

[2] = tested on: hospitalized men with COVID-19; test: Randomized controlled pilot trial: clinical status and clinical outcomes, progesterone + SOC vs SOC alone; assay type: in vivo, human
[3] = Control Group After Progesterone n = 9, SAEs after receiving progesterone (crossover)
[4] = 100 mg sc twice daily 5 days + SOC, n = 18
[5] = 100 mg sc twice daily 5 days + SOC, preliminary analysis N = 17
[6] = 7-point ordinal scale, preliminary analysis N = 17, P 0.003 vs SOC
[7] = 7-point ordinal scale, preliminary analysis N = 17, P <0.001 vs SOC
[8] = seven-point ordinal scale, from baseline, n = 18

Compound: CC(=O)[C@H]1CC[C@H]2[C@@H]3CCC4=CC(=O)CC[C@]4(C)[C@H]3CC[C@]12C [Progesterone, progesterone]
- serious adverse events attributable to progesterone ([1]; 100 mg sc twice daily): no serious adverse events attributable to progesterone
- Any SAE or death [1, 3]: 3 (33.3) No. (%)
- SAE: Cardiac arrest [1, 3]: 0 (0.0) No. (%)
- SAE: Creatinine increased [1, 3]: 0 (0.0) No. (%)
- SAE: DVT [1, 3]: 1 (11.1) No. (%)
- SAE: Death [1, 3]: 0 (0.0) No. (%)
- SAE: Hypoperfusion [1, 3]: 2 (22.2) No. (%)
- SAE: Hypoxia [1, 3]: 3 (33.3) No. (%)
- SAE: Lymphocyte count decreased [1, 3]: 0 (0.0) No. (%)
- SAE: Pulmonary embolism [1, 3]: 0 (0.0) No. (%)
- Any SAE or death ([1]; Progesterone Group n = 18): 2 (11.1) No. (%)
- SAE: Cardiac arrest ([1]; Progesterone Group n = 18): 0 (0.0) No. (%)
- SAE: Creatinine increased ([1]; Progesterone Group n = 18): 0 (0.0) No. (%)
- SAE: DVT ([1]; Progesterone Group n = 18): 1 (5.6) No. (%)
- SAE: Death ([1]; Progesterone Group n = 18): 1 (5.6) No. (%)
- SAE: Hypoperfusion ([1]; Progesterone Group n = 18): 0 (0.0) No. (%)
- SAE: Hypoxia ([1]; Progesterone Group n = 18): 0 (0.0) No. (%)
- SAE: Lymphocyte count decreased ([1]; Progesterone Group n = 18): 0 (0.0) No. (%)
- SAE: Pulmonary embolism ([1]; Progesterone Group n = 18): 1 (5.6) No. (%)
- risk of thromboembolism ([1]; all patients on prophylactic-dose anticoagulation): not associated with any significant increase in the risk of thromboembolism
- tolerability of high serum levels ([1]; levels as high as 288 ng/mL): tolerated well and not associated with any adverse events
- deaths during the total 15-day surveillance period ([1]; progesterone group, not attributable to progesterone): one
- patients with thromboembolic events ([1]; progesterone group, two thromboembolic events in one patient): 5.6%
- Status on day 7: 1: Death [2, 4]: 1 (5.6) No. (%)
- Status on day 7: 2: Hospitalized; on invasive mechanical ventilation or ECMO [2, 4]: 0 (0.0) No. (%)
- Status on day 7: 3: Hospitalized; on high-flow nasal cannula [2, 4]: 2 (11.1) No. (%)
- Status on day 7: 4: Hospitalized; requiring supplemental oxygen (not HFNC) [2, 4]: 2 (11.1) No. (%)
- Status on day 7: 5: Hospitalized; not requiring supplemental oxygen [2, 4]: 4 (22.2) No. (%)
- Status on day 7: 6: Not hospitalized; limitations on activities [2, 4]: 7 (38.9) No. (%)
- Status on day 7: 7: Not hospitalized; no limitations on activities [2, 4]: 2 (11.1) No. (%)
- Status on day 15: 1: Death [2, 4]: 1 (5.6) No. (%)
- Status on day 15: 2: Hospitalized; on invasive mechanical ventilation or ECMO [2, 4]: 0 (0.0) No. (%)
- Status on day 15: 3: Hospitalized; on high-flow nasal cannula [2, 4]: 0 (0.0) No. (%)
- Status on day 15: 4: Hospitalized; requiring supplemental oxygen (not HFNC) [2, 4]: 1 (5.6) No. (%)
- Status on day 15: 5: Hospitalized; not requiring supplemental oxygen [2, 4]: 1 (5.6) No. (%)
- Status on day 15: 6: Not hospitalized; limitations on activities [2, 4]: 8 (44.4) No. (%)
- Status on day 15: 7: Not hospitalized; no limitations on activities [2, 4]: 7 (38.9) No. (%)
- Status at Day 7: 2-Hospitalized; on invasive mechanical ventilation or ECMO [2, 5]: 0 (0.0) n (%)
- Status at Day 7: 3-Hospitalized; on high flow nasal cannula [2, 5]: 2 (11.8) n (%)
- Status at Day 7: 4-Hospitalized; requiring supplemental oxygen (not HFNC) [2, 5]: 2 (11.8) n (%)
- Status at Day 7: 5-Hospitalized; not requiring supplemental oxygen [2, 5]: 4 (23.5) n (%)
- Status at Day 7: 6-Not hospitalized; limitations on activities [2, 5]: 7 (41.2) n (%)
- Status at Day 7: 7-Not hospitalized; no limitations on activities [2, 5]: 2 (11.8) n (%)
- Worst Status Prior to Day 7: 2-Hospitalized; on invasive mechanical ventilation or ECMO [2, 5]: 0 (0.0) n (%)
- Worst Status Prior to Day 7: 3-Hospitalized; on high flow nasal cannula [2, 5]: 5 (29.4) n (%)
- Worst Status Prior to Day 7: 4-Hospitalized; requiring supplemental oxygen (not HFNC) [2, 5]: 11 (64.7) n (%)
- Worst Status Prior to Day 7: 5-Hospitalized; not requiring supplemental oxygen [2, 5]: 1 (5.9) n (%)
- Change from Baseline at Day 7: 0 [2, 6]: 3 (17.6) n (%)
- Change from Baseline at Day 7: +1 [2, 6]: 3 (17.6) n (%)
- Change from Baseline at Day 7: +2 [2, 6]: 7 (41.2) n (%)
- Change from Baseline at Day 7: +3 [2, 6]: 2 (11.8) n (%)
- Change from Baseline at Day 7: −1 [2, 6]: 2 (11.8) n (%)
- Change from Baseline at Day 7: −2 [2, 6]: 0 (0.0) n (%)
- Change from Worst at Day 7: 0 [2, 7]: 3 (17.6) n (%)
- Change from Worst at Day 7: +1 [2, 7]: 4 (23.5) n (%)
- Change from Worst at Day 7: +3 [2, 7]: 2 (11.8) n (%)
- median hospital length of stay (LOS) ([2]; Progesterone Group n = 18): 7.0 days
- median number of days on supplemental oxygen ([2]; Progesterone Group n = 18): 4.5 (IQR, 2.0-6.0) days and 4.5 days
- patients remaining hospitalized at study completion ([2]; day 15, progesterone group): one
- cumulative probability of clinical improvement (increase of at least one point on the seven-point scale or live discharge) ([2]; first seven study days, Kaplan-Meier estimation, one noncompliant patient excluded, log-rank P=0.014 vs control): 0.76 (95% CI, 0.55-0.93)
- fewer days hospitalized than control ([2]; median 7.0 vs 9.5 days): 2.5 days
- patients remaining hospitalized by day 7 ([2]; nine of 18 patients): 50%
- median improvement more than control group, worst clinical status before day 7 vs status on day 7 ([2]; post hoc sensitivity analysis, 95% CI, 1.0-2.0, P=0.006): two
- improvement in clinical status at Day 7 compared to SOC ([2]; preliminary analysis, Wilcoxon rank-sum p=0.003): greater degree of improvement in clinical status at Day 7
- improvement from worst status prior to Day 7 compared to SOC ([2]; preliminary sensitivity analysis, p<0.001): greater improvement over the SOC group
- mechanical ventilation initiated ([2]; progesterone group, vs four of 22 control patients): none
- overall change in score from baseline to day 7, median better than control group ([2]; sensitivity analysis, last assessment before crossing over imputed as day 7 score, 95% CI, 0.0-2.0, P=0.010): 1.5 points
- Change in status on day 7: 0 [2, 8]: 3 (16.7) No. (%)
- Change in status on day 7: +1 [2, 8]: 3 (16.7) No. (%)
- Change in status on day 7: +2 [2, 8]: 7 (38.9) No. (%)
- Change in status on day 7: +3 [2, 8]: 2 (11.1) No. (%)
- Change in status on day 7: −1 [2, 8]: 2 (11.1) No. (%)
- Change in status on day 7: −2 [2, 8]: 0 (0.0) No. (%)
- Change in status on day 7: −3 [2, 8]: 1 (5.6) No. (%)
- Change in status on day 15: 0 [2, 8]: 1 (5.6) No. (%)
- Change in status on day 15: +1 [2, 8]: 4 (22.2) No. (%)
- Change in status on day 15: +2 [2, 8]: 4 (22.2) No. (%)
- Change in status on day 15: +3 [2, 8]: 7 (38.9) No. (%)
- Change in status on day 15: +4 [2, 8]: 1 (5.6) No. (%)
- Change in status on day 15: −1 [2, 8]: 0 (0.0) No. (%)
- Change in status on day 15: −2 [2, 8]: 0 (0.0) No. (%)
- Change in status on day 15: −3 [2, 8]: 1 (5.6) No. (%)
- Change in status on day 7, median (IQR) ([2]; seven-point ordinal scale, from baseline, n = 18, P .024 vs control): 1.5 (0.0 to 2.0)
- Change in status on day 15, median (IQR) ([2]; seven-point ordinal scale, from baseline, n = 18, P .150 vs control): 2.0 (1.0 to 3.0)
- overall improvement in median clinical status score from baseline to day 7 compared with control ([2]; seven-point ordinal scale, 95% CI, 0.0-2.0, P=0.024): 1.5 points
